Experimental data from EP0252380B1, “Antibiotic LL-E19020 alpha and beta” (AMERICAN CYANAMID COMPANY, priority 1986, dated 1988).
In brackets after ≈: the same amount, converted by molar mass.

Experiments:
[1] = tested on: Caenorhabditis elegans; test: Control of the free living nematode Caenorhabditis elegans (motility rating); assay type: cell-based; design: key: 9 = worms immobile or dead within 4 hours post immersion in microfilter test solution; 8 = no motility; 7 = markedly reduced motility in approximately 95% of worms; 6 = reduced motility; 5 = slightly reduced motility; 0 = normal motility, same as controls; settings: 150 ppm; motility of adults and larvae
Text: Culture Maintenance: Cultures of C. elegans (Bristol strain from J. Lewis) are maintained on E. coli lawns on NG Agar Plates at 20 C. New cultures are established weekly. Nematodes for testing are washed from 4-5 day old cultures using Fresh Ascaris ringers Solution (FARS). The worms are further washed with FARS, containing gentamycin, to reduce bacterial contamination and centrifuged to separate worms from wash solution. This procedure is repeated three times. The washed worms are than added to C. briggsae Maintenance Medium (CbMM), from GIBCO^a to which is added gentamycin (600 units/ml) and mycostatin (0.5 mg.ml). ^aGIBCO Laboratories, 3175 Staley Road, Grand Island, N.Y. 14027, USA Compounds are dissolved in acetone and made up to volume with equal parts of water. The final test concentration of each compound in the mixture is 150 ppm. The test material is micropipetted (25 ul) into a single well of a 96-well sterile tissue culture plate (COSTAR)^b and the solvent allowed to evaporate. These "treated" plates are used immediately or stored in a freezer without apparent adverse effects on the compounds. ^b205 Broadway, Cambridge, MA 02139, USA […] […] Immediately prior to reading the plate, it is gently tapped to stimulate the movement of the worms. Activity is judged subjectively, but semi-quantitatively, based on the drug effects on motility of the adults and larvae. […]

[2] = tested on: Escherichia coli; test: In vitro antibacterial activity, standard agar dilution method (Table II); assay type: cell-based; settings: strain 311
[3] = tested on: Pseudomonas aeruginosa; test: as above; assay type: cell-based; settings: strain 12-4-4
[4] = tested on: Escherichia coli; test: Minimum inhibitory concentration by agar dilution (Table VI); assay type: cell-based; settings: 2 strains tested
[5] = tested on: Staphylococcus saprophyticus; test: In vitro antibacterial activity, standard agar dilution method (Table II); assay type: cell-based; settings: strain VHG-84-50
[6] = tested on: Streptococcus faecalis; test: Minimum inhibitory concentration by agar dilution (Table VI); assay type: cell-based; settings: 1 strain tested
[7] = tested on: Pasteurella multocida; test: as above; assay type: cell-based; settings: 6 strains tested
[8] = tested on: Klebsiella pneumoniae; test: In vitro antibacterial activity, standard agar dilution method (Table II); assay type: cell-based; settings: strain AD
[9] = tested on: Peptococcus magnus; test: as above; assay type: cell-based
[10] = tested on: Enterobacter cloacae; test: as above; assay type: cell-based; settings: strain VGH-84-37
[11] = tested on: Morganella morganii; test: as above; assay type: cell-based; settings: strain VGH-84-71
[12] = tested on: Staphylococcus epidermidis; test: as above; assay type: cell-based; settings: strain IO-83-58
[13] = tested on: Clostridium perfringens; assay type: cell-based; settings: strain ATCC 13124
[14] = tested on: Salmonella choleraesuis; test: Minimum inhibitory concentration by agar dilution (Table VI); assay type: cell-based; settings: 2 strains tested
[15] = tested on: Mycoplasma gallisepticum "R"; test: Minimum inhibitory concentration assay for Mycoplasma gallisepticum (microdilution, Table VII); settings: microdilution; "R" strain
[16] = tested on: Treponema hyodysenteriae; test: T. hyodysenteriae disk test (primary in vitro disk diffusion test); settings: disks soaked in 2.5 mg/ml solution, zones of inhibited hemolysis
[17] = tested on: Staphylococcus aureus Smith; test: In vivo antibacterial activity in infected mice (Table III); settings: S. aureus Smith, 30 minutes before infection
[18] = tested on: In Vitro Rumen Fermentation; test: Propionate enhancement activity during in vitro rumen fermentation; assay type: cell-based, steer; settings: for A:P: acetate/propionate ratio
Method: The drugs are dissolved or suspended (sonified if necessary) in a 0.1% Tween 20-ethanol-water vehicle and 25-50 ul is added to the incubation. The reaction is terminated with 6N HCl and centrifuged at 20,000 x g. Alliquots of the superinatant are analyzed for volatile fatty acid (VFA) content by gas-liquid chromatography.

[19] = tested on: Streptococcus pneumoniae; test: In vitro antibacterial activity, standard agar dilution method (Table II); assay type: cell-based
[20] = tested on: Bacteroides fragilis; test: as above; assay type: cell-based; settings: strain NYC 77-1
[21] = tested on: Pasteurella multocida 31081B; test: Pasteurella disk test (primary in vitro disk diffusion test); settings: disks soaked in 2.5 mg/ml solution; strain 31081B
[22] = tested on: Streptococcus agalactiae; test: Minimum inhibitory concentration by agar dilution (Table VI); assay type: cell-based; settings: 4 strains tested
[23] = tested on: Streptococcus uberis; test: as above; assay type: cell-based; settings: 1 strain tested
[24] = tested on: Clostridium difficile; test: In vitro antibacterial activity, standard agar dilution method (Table II); assay type: cell-based; settings: strain ATCC 17858
[25] = tested on: Pasteurella haemolytica; test: Minimum inhibitory concentration by agar dilution (Table VI); assay type: cell-based; settings: 3 strains tested
[26] = tested on: Serratia marcescens; test: In vitro antibacterial activity, standard agar dilution method (Table II); assay type: cell-based; settings: strain K-84-18

**Q.** For `C/C=C\C=C\[C@@H]1O[C@](O)([C@H](CO[C@H]2C[C@@H](OC)[C@@H](O[C@@H]3C[C@@H](OC)[C@@H](O[C@H]4C[C@H](OC)[C@H](O)[C@H](C)O4)[C@H](C)O3)[C@@H](C)O2)C(=O)NC/C=C/C=C(\C)[C@@H](OC)[C@H](C)[C@H]2C[C@H](O)[C@H](/C=C/C=C/C=C/C(=O)O)O2)[C@H](OC(=O)Cc2ccccc2)[C@H](O)C1(C)C` [LL-E19020 alpha], which Rating [1] is on record?
**A.** The Rating was 9 (immobile or dead).

**Q.** What about the “Minimal Inhibitory Concentration” value [2] of the same molecule?
**A.** Its value is greater than 256 µg/mL.

**Q.** And the “Minimal Inhibitory Concentration” value [3]?
**A.** Its value is greater than 256 µg/mL.

**Q.** And the MIC [4]?
**A.** The MIC was “≧ 256 µg/ml”.

**Q.** What about the “Minimal Inhibitory Concentration” value [5] of the same molecule?
**A.** The value was greater than 256 µg/mL.

**Q.** And the MIC [6]?
**A.** Its MIC is 8 mg/L (≈ 6.52 µM).

**Q.** What about the MIC [7] of the same molecule?
**A.** The MIC was 8 to 16 mg/L.

**Q.** And the “Minimal Inhibitory Concentration” value [8]?
**A.** Its value is greater than 256 µg/mL.

**Q.** What about the “Minimal Inhibitory Concentration” value ([9]; strain ATCC 14956) of the same molecule?
**A.** The value was 0.12 µg/mL.

**Q.** What about the “Minimal Inhibitory Concentration” value ([9]; strain ATCC 29328) of the same molecule?
**A.** The value was 0.12 µg/mL.

**Q.** What about the “Minimal Inhibitory Concentration” value [10] of the same molecule?
**A.** The value was greater than 256 µg/mL.

**Q.** And the “Minimal Inhibitory Concentration” value [11]?
**A.** Its value is greater than 256 µg/mL.

**Q.** And the “Minimal Inhibitory Concentration” value [12]?
**A.** Its value is greater than 256 µg/mL.

**Q.** And the “Minimal Inhibitory Concentration” value [13]?
**A.** Its value is 16 µg/mL.

**Q.** And the MIC [14]?
**A.** Its MIC is greater than 256 mg/L.

**Q.** What about the MIC [15] of the same molecule?
**A.** Its MIC is 0.125 mg/L (≈ 0.102 µM).

**Q.** What about the “ZONE SIZE” value ([16]; strain B78 (ATCC 27164)) of the same molecule?
**A.** The value was 0 mm.

**Q.** What about the “ZONE SIZE” value ([16]; strain B204 (ATCC 31212)) of the same molecule?
**A.** The value was 15 mm.

**Q.** What about the “Survival Ratios 7 Days After Infection” value ([17]; single subcutaneous dose 4 mg/kg) of the same molecule?
**A.** The value was 2/5.

**Q.** What about the “Survival Ratios 7 Days After Infection” value ([17]; single subcutaneous dose 16 mg/kg) of the same molecule?
**A.** Its value is 3/5.

**Q.** And the “Survival Ratios 7 Days After Infection” value ([17]; single subcutaneous dose 64 mg/kg)?
**A.** Its value is 3/5.

**Q.** And the “Survival Ratios 7 Days After Infection” value ([17]; single subcutaneous dose 256 mg/kg)?
**A.** Its value is 3/5.

**Q.** And the “A:P” value ([18]; Table X, 0.008 PPM, control 2.65)?
**A.** Its value is 2.66.

**Q.** And the “TOTAL VFA” value ([18]; Table X, 0.008 PPM, control 159.4)?
**A.** Its value is 161.2 mM.

**Q.** What about the “A:P” value ([18]; Table X, 0.031 PPM, control 2.65) of the same molecule?
**A.** Its value is 2.43.

**Q.** What about the “TOTAL VFA” value ([18]; Table X, 0.031 PPM, control 159.4) of the same molecule?
**A.** Its value is 158.4 mM.

**Q.** And the “A:P” value ([18]; Table X, 0.125 PPM, control 2.65)?
**A.** The value was 2.14.

**Q.** And the “TOTAL VFA” value ([18]; Table X, 0.125 PPM, control 159.4)?
**A.** The value was 159.2 mM.

**Q.** And the “A:P” value ([18]; Table X, 0.500 PPM, control 2.65)?
**A.** Its value is 2.27.

**Q.** And the “TOTAL VFA” value ([18]; Table X, 0.500 PPM, control 159.4)?
**A.** The value was 146.9 mM.

**Q.** What about the “A:P” value ([18]; Table X, 2.000 PPM, control 2.65) of the same molecule?
**A.** The value was 2.21.

**Q.** And the “TOTAL VFA” value ([18]; Table X, 2.000 PPM, control 159.4)?
**A.** Its value is 150.5 mM.

**Q.** What about the “A:P” value ([18]; Table XI, 0.015 PPM, control 2.19) of the same molecule?
**A.** The value was 2.05.

**Q.** What about the “TOTAL VFA” value ([18]; Table XI, 0.015 PPM, control 125.3) of the same molecule?
**A.** The value was 125.1 mM.

**Q.** What about the “A:P” value ([18]; Table XI, 0.031 PPM, control 2.19) of the same molecule?
**A.** Its value is 1.96.

**Q.** And the “TOTAL VFA” value ([18]; Table XI, 0.031 PPM, control 125.3)?
**A.** Its value is 126.5 mM.

**Q.** And the “A:P” value ([18]; Table XI, 0.062 PPM, control 2.19)?
**A.** Its value is 1.90.

**Q.** And the “TOTAL VFA” value ([18]; Table XI, 0.062 PPM, control 125.3)?
**A.** The value was 126.3 mM.

**Q.** What about the “A:P” value ([18]; Table XI, 0.125 PPM, control 2.19) of the same molecule?
**A.** The value was 1.92.

**Q.** And the “TOTAL VFA” value ([18]; Table XI, 0.125 PPM, control 125.3)?
**A.** The value was 121.9 mM.

**Q.** What about the “A:P” value ([18]; Table XI, 0.250 PPM, control 2.19) of the same molecule?
**A.** The value was 1.85.

**Q.** What about the “TOTAL VFA” value ([18]; Table XI, 0.250 PPM, control 125.3) of the same molecule?
**A.** The value was 121.1 mM.

**Q.** And the “Minimal Inhibitory Concentration” value ([19]; strain K-84-21)?
**A.** Its value is 1 µg/mL.

**Q.** What about the “Minimal Inhibitory Concentration” value ([19]; strain SVI) of the same molecule?
**A.** The value was 1 µg/mL.

**Q.** And the “Minimal Inhibitory Concentration” value ([19]; strain VGH-84-56)?
**A.** The value was 1 µg/mL.

**Q.** And the “Minimal Inhibitory Concentration” value ([19]; strain VGH-84-57)?
**A.** The value was 2 µg/mL.

**Q.** And the “Minimal Inhibitory Concentration” value ([19]; strain VGH-84-58)?
**A.** The value was 0.25 µg/mL.

**Q.** And the “Minimal Inhibitory Concentration” value ([19]; strain VGH-84-59)?
**A.** The value was 0.25 µg/mL.

**Q.** And the “Minimal Inhibitory Concentration” value [20]?
**A.** The value was greater than 128 µg/mL.

**Q.** What about the “ZONE SIZE” value [21] of the same molecule?
**A.** The value was 15 mm.

**Q.** And the MIC [22]?
**A.** The MIC was 2 to 8 mg/L.

**Q.** What about the MIC [23] of the same molecule?
**A.** Its MIC is 8 mg/L (≈ 6.52 µM).

**Q.** And the “Minimal Inhibitory Concentration” value [24]?
**A.** The value was 4 µg/mL.

**Q.** What about the MIC [25] of the same molecule?
**A.** Its MIC is 16 mg/L (≈ 13 µM).

**Q.** And the “Minimal Inhibitory Concentration” value [26]?
**A.** Its value is greater than 256 µg/mL.
